Measured values: the NIST ThermoML archive (doi:10.1021/je300134c)

Test: xn = mol fraction of the nth substance listed
Conditions: 101 kPa, Liquid; for speed of sound: Sing-around technique in a fixed-path interferometer; for mass density: Vibrating tube method

CCCC[n+]1ccn(CC)c1.O=S(=O)([O-])C(F)(F)F + O
Conditions | mass density [kg/m3] | speed of sound [m/s]
278.15 K, x1 = 0.04992 | 1120.13 | 1524
278.15 K, x1 = 0.1001 | 1171.15 | 1521.3
278.15 K, x1 = 0.1498 | 1199.88 | 1514.7
278.15 K, x1 = 0.1998 | 1218.01 | 1505.6
278.15 K, x1 = 0.3013 | 1239.57 | 1484.6
278.15 K, x1 = 0.4012 | 1251.73 | 1467.7
278.15 K, x1 = 0.496 | 1259.25 | 1455.4
278.15 K, x1 = 0.6017 | 1265.19 | 1444.9
278.15 K, x1 = 0.7007 | 1269.28 | 1436.2
278.15 K, x1 = 0.8551 | 1274.04 | 1428
278.15 K, x1 = 0.9006 | 1275.29 | 1424.8
278.15 K, x1 = 1 | 1278.02 | 1420.6
288.15 K, x1 = 0.04992 | 1114.86 | 1527.1
288.15 K, x1 = 0.1001 | 1164.38 | 1513.5
288.15 K, x1 = 0.1498 | 1192.37 | 1500.2
288.15 K, x1 = 0.1998 | 1210.13 | 1487.1
288.15 K, x1 = 0.3013 | 1231.45 | 1462.7
288.15 K, x1 = 0.4012 | 1243.63 | 1444.7
288.15 K, x1 = 0.496 | 1251.19 | 1432
288.15 K, x1 = 0.6017 | 1257.22 | 1421
288.15 K, x1 = 0.7007 | 1261.36 | 1412.4
288.15 K, x1 = 0.8551 | 1266.2 | 1403.7
288.15 K, x1 = 0.9006 | 1267.39 | 1400.7
288.15 K, x1 = 1 | 1269.97 | 1396.3
298.15 K, x1 = 0.04992 | 1109.08 | 1526.5
298.15 K, x1 = 0.1001 | 1157.27 | 1503
298.15 K, x1 = 0.1498 | 1184.63 | 1484.1
298.15 K, x1 = 0.1998 | 1202.11 | 1467.7
298.15 K, x1 = 0.3013 | 1223.27 | 1440.8
298.15 K, x1 = 0.4012 | 1235.48 | 1422
298.15 K, x1 = 0.496 | 1243.13 | 1409
298.15 K, x1 = 0.6017 | 1249.23 | 1397.9
298.15 K, x1 = 0.7007 | 1253.44 | 1389.3
298.15 K, x1 = 0.8551 | 1258.37 | 1380.5
298.15 K, x1 = 0.9006 | 1259.57 | 1377.5
298.15 K, x1 = 1 | 1262.21 | 1373.1
308.15 K, x1 = 0.04992 | 1102.81 | 1522.5
308.15 K, x1 = 0.1001 | 1149.85 | 1490.2
308.15 K, x1 = 0.1498 | 1176.7 | 1466.4
308.15 K, x1 = 0.1998 | 1193.95 | 1447.6
308.15 K, x1 = 0.3013 | 1215.04 | 1418.7
308.15 K, x1 = 0.4012 | 1227.32 | 1399.3
308.15 K, x1 = 0.496 | 1235.04 | 1386.3
308.15 K, x1 = 0.6017 | 1241.24 | 1375.1
308.15 K, x1 = 0.7007 | 1245.51 | 1366.7
308.15 K, x1 = 0.8551 | 1250.54 | 1357.8
308.15 K, x1 = 0.9006 | 1251.76 | 1355
308.15 K, x1 = 1 | 1254.44 | 1350.6
318.15 K, x1 = 0.04992 | 1096.1 | 1515.2
318.15 K, x1 = 0.1001 | 1142.14 | 1475.1
318.15 K, x1 = 0.1498 | 1168.57 | 1447.5
318.15 K, x1 = 0.1998 | 1185.67 | 1426.7
318.15 K, x1 = 0.3013 | 1206.74 | 1396.3
318.15 K, x1 = 0.4012 | 1219.13 | 1376.7
318.15 K, x1 = 0.496 | 1226.96 | 1363.7
318.15 K, x1 = 0.6017 | 1233.26 | 1352.5
318.15 K, x1 = 0.7007 | 1237.61 | 1344.3
318.15 K, x1 = 0.8551 | 1242.74 | 1335.7
318.15 K, x1 = 0.9006 | 1243.97 | 1333
318.15 K, x1 = 1 | 1246.71 | 1328.6
328.15 K, x1 = 0.04992 | 1088.96 | 1504.9
328.15 K, x1 = 0.1001 | 1134.15 | 1458.2
328.15 K, x1 = 0.1498 | 1160.26 | 1427.4
328.15 K, x1 = 0.1998 | 1177.26 | 1405
328.15 K, x1 = 0.3013 | 1198.39 | 1373.8
328.15 K, x1 = 0.4012 | 1210.91 | 1354.1
328.15 K, x1 = 0.496 | 1218.87 | 1341.2
328.15 K, x1 = 0.6017 | 1225.3 | 1330.3
328.15 K, x1 = 0.7007 | 1229.73 | 1322.3
328.15 K, x1 = 0.8551 | 1234.98 | 1314
328.15 K, x1 = 0.9006 | 1236.23 | 1311.3
328.15 K, x1 = 1 | 1239.01 | 1307.1
338.15 K, x1 = 0.04992 | 1081.43 | 1492
338.15 K, x1 = 0.1001 | 1125.92 | 1439.7
338.15 K, x1 = 0.1498 | 1151.76 | 1406.4
338.15 K, x1 = 0.1998 | 1168.74 | 1382.8
338.15 K, x1 = 0.3013 | 1189.99 | 1351.2
338.15 K, x1 = 0.4012 | 1202.68 | 1331.6
338.15 K, x1 = 0.496 | 1210.79 | 1319
338.15 K, x1 = 0.6017 | 1217.37 | 1308.4
338.15 K, x1 = 0.7007 | 1221.89 | 1300.7
338.15 K, x1 = 0.8551 | 1227.27 | 1292.7
338.15 K, x1 = 0.9006 | 1228.53 | 1290.2
338.15 K, x1 = 1 | 1231.35 | 1286.1
